# Measured values reported in ChEMBL document CHEMBL4024706 (Eur J Med Chem, 2017).
# What was measured:
# [1] = target: Dual specificity protein kinase TTK (Homo sapiens) (UniProt P33981); test: Inhibition of wild-type human partial length TTK (N505 to V798 residues) expressed in bacterial expression system assessed as residual activity at 1 uM by Kinomescan method relative to control
# [2] = target: Ephrin type-B receptor 3 (Homo sapiens) (UniProt P54753); test: Inhibition of wild-type human partial length EPHB3 (Q599 to T928 residues) expressed in bacterial expression system assessed as residual activity at 1 uM by Kinomescan method relative to control
# [3] = target: Serine/threonine-protein kinase ULK2 (Homo sapiens) (UniProt Q8IYT8); test: Inhibition of wild-type human partial length ULK2 (M1 to S301 residues) expressed in mammalian expression system assessed as residual activity at 1 uM by Kinomescan method relative to control
# [4] = target: Cyclin-dependent kinase 5 (Homo sapiens) (UniProt Q00535); test: Inhibition of wild-type human full length CDK5 (M1 to P292 residues) expressed in bacterial expression system assessed as residual activity at 1 uM by Kinomescan method relative to control
# [5] = target: Serine/threonine-protein kinase MRCK beta (Homo sapiens) (UniProt Q9Y5S2); test: Inhibition of wild-type human partial length MRCKB (L56 to S417 residues) expressed in bacterial expression system assessed as residual activity at 1 uM by Kinomescan method relative to control
# [6] = target: Epithelial discoidin domain-containing receptor 1 (Homo sapiens) (UniProt Q08345); test: Inhibition of wild-type human partial length DDR1 (R565 to V876 residues) expressed in bacterial expression system assessed as residual activity at 1 uM by Kinomescan method relative to control
# [7] = target: Dual specificity protein kinase CLK2 (Homo sapiens) (UniProt P49760); test: Inhibition of wild-type human partial length CLK2 (D144 to R498 residues) expressed in bacterial expression system assessed as residual activity at 1 uM by Kinomescan method relative to control
# [8] = tested on: PBMC; test: Cytotoxicity against PBMC (unknwon origin); type: cell-based
# [9] = target: Ribosomal protein S6 kinase alpha-5 (Homo sapiens) (UniProt O75582); test: Inhibition of wild-type human partial length C-terminal RPS6KA5 kinase domain 2 (V390 to T718 residues) expressed in bacterial expression system assessed as residual activity at 1 uM by Kinomescan method relative to control
# [10] = target: Tyrosine-protein kinase Tec (Homo sapiens) (UniProt P42680); test: Inhibition of wild-type human partial length TEC (L341 to D620 residues) expressed in bacterial expression system assessed as residual activity at 1 uM by Kinomescan method relative to control
# [11] = target: Calcium-dependent protein kinase 1 (Plasmodium falciparum) (UniProt P62344); test: Inhibition of wild-type Plasmodium falciparum isolate 3D7 full length CDPK1 (M1 to S524 residues) expressed in mammalian expression system assessed as residual activity at 1 uM by Kinomescan method relative to control
# [12] = target: Ephrin type-A receptor 7 (Homo sapiens) (UniProt Q15375); test: Inhibition of wild-type human partial length EPHA7 (Y608 to S912 residues) expressed in bacterial expression system assessed as residual activity at 1 uM by Kinomescan method relative to control
# [13] = target: Mitogen-activated protein kinase 1 (Homo sapiens) (UniProt P28482); test: Inhibition of wild-type human full length ERK2 (M1 to S360 residues) expressed in bacterial expression system assessed as residual activity at 1 uM by Kinomescan method relative to control
# [14] = target: STE20/SPS1-related proline-alanine-rich protein kinase (Homo sapiens) (UniProt Q9UEW8); test: Inhibition of wild-type human partial length STK39 (P43 to I357 residues) expressed in mammalian expression system assessed as residual activity at 1 uM by Kinomescan method relative to control
# [15] = target: CDK4/Cyclin D3 (Homo sapiens) (UniProt P11802+P30281); test: Inhibition of wild-type human full length CDK4/cyclinD3 (M1 to E303 residues) expressed in mammalian expression system assessed as residual activity at 1 uM by Kinomescan method relative to control
# [16] = tested on: Phosphatidylinositol 4,5-bisphosphate 3-kinase catalytic subunit alpha isoform (Homo sapiens), P42336 [H1047L]; test: Inhibition of human partial length PIK3CA H1047L mutant (R108 to N1068 residues) expressed in mammalian expression system assessed as residual activity at 1 uM by Kinomescan method relative to control
# [17] = target: MAP kinase-activated protein kinase 2 (Homo sapiens) (UniProt P49137); test: Inhibition of wild-type human partial length MAPKAPK2 (V48 to D345 residues) expressed in bacterial expression system assessed as residual activity at 1 uM by Kinomescan method relative to control
# [18] = target: Glycogen synthase kinase-3 beta (Homo sapiens) (UniProt P49841); test: Inhibition of wild-type human full length GSK3B (M1 to T433 residues) expressed in mammalian expression system assessed as residual activity at 1 uM by Kinomescan method relative to control
# [19] = target: Mitogen-activated protein kinase kinase kinase 10 (Homo sapiens) (UniProt Q02779); test: Inhibition of wild-type human partial length MLK2 (V52 to W380 residues) expressed in bacterial expression system assessed as residual activity at 1 uM by Kinomescan method relative to control
# [20] = target: Mitogen-activated protein kinase 8 (Homo sapiens) (UniProt P45983); test: Inhibition of wild-type human full length JNK1 (M1 to Q384 residues) expressed in mammalian expression system assessed as residual activity at 1 uM by Kinomescan method relative to control
# [21] = target: Aurora kinase C (Homo sapiens) (UniProt Q9UQB9); test: Inhibition of wild-type human full length AURKC (M1 to S275 residues) expressed in bacterial expression system assessed as residual activity at 1 uM by Kinomescan method relative to control
# [22] = target: Rho-associated protein kinase 1 (Homo sapiens) (UniProt Q13464); test: Inhibition of wild-type human partial length ROCK1 (M1 to R415 residues) expressed in mammalian expression system assessed as residual activity at 1 uM by Kinomescan method relative to control
# [23] = target: Ribosomal protein S6 kinase alpha-6 (Homo sapiens) (UniProt Q9UK32); test: Inhibition of wild-type human partial length N-terminal RSK4 kinase domain 1 (M1 to E397 residues) expressed in mammalian expression system assessed as residual activity at 1 uM by Kinomescan method relative to control
# [24] = target: Serine/threonine-protein kinase DCLK2 (Homo sapiens) (UniProt Q8N568); test: Inhibition of wild-type human partial length DCAMKL2 (K273 to V664 residues) expressed in bacterial expression system assessed as residual activity at 1 uM by Kinomescan method relative to control
# [25] = target: Serine/threonine-protein kinase STK11 (Homo sapiens) (UniProt Q15831); test: Inhibition of wild-type human full length LKB1 (M1 to Q433 residues) expressed in bacterial expression system assessed as residual activity at 1 uM by Kinomescan method relative to control
# Chain of Serine/threonine-protein kinase STK11 (Homo sapiens) (Q15831 whole entry, the tested form may be a part): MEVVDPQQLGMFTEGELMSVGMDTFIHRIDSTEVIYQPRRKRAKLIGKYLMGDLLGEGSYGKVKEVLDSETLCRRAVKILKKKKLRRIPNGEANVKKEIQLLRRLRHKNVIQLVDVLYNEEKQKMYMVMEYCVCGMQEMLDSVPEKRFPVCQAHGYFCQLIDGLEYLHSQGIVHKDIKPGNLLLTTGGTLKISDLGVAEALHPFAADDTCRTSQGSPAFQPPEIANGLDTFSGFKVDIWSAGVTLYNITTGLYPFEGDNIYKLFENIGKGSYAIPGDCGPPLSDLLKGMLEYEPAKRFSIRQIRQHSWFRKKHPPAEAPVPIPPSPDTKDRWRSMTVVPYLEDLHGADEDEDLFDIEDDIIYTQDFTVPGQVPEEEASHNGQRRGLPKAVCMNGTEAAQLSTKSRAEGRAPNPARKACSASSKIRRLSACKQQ
# Chain of Tyrosine-protein kinase Tec (Homo sapiens) (P42680 whole entry, the tested form may be a part): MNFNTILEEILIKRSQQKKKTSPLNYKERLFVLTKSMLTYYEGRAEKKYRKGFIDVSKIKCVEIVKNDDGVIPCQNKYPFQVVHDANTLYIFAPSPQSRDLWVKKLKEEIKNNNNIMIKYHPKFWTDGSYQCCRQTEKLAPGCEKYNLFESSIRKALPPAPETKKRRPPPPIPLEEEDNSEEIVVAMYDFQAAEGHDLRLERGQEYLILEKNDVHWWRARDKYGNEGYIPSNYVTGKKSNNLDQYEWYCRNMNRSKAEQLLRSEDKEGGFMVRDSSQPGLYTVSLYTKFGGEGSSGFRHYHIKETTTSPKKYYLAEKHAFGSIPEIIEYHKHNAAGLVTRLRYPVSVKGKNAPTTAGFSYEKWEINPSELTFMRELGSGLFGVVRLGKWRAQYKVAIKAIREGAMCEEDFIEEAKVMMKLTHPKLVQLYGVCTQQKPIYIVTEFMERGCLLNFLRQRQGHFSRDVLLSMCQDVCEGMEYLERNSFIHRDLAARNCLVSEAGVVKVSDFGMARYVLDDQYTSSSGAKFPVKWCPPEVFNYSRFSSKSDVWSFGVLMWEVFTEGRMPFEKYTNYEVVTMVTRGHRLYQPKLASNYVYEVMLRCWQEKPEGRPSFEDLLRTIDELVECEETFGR
# Chain of Mitogen-activated protein kinase kinase kinase 10 (Homo sapiens) (Q02779 whole entry, looked up, the tested form may be a part): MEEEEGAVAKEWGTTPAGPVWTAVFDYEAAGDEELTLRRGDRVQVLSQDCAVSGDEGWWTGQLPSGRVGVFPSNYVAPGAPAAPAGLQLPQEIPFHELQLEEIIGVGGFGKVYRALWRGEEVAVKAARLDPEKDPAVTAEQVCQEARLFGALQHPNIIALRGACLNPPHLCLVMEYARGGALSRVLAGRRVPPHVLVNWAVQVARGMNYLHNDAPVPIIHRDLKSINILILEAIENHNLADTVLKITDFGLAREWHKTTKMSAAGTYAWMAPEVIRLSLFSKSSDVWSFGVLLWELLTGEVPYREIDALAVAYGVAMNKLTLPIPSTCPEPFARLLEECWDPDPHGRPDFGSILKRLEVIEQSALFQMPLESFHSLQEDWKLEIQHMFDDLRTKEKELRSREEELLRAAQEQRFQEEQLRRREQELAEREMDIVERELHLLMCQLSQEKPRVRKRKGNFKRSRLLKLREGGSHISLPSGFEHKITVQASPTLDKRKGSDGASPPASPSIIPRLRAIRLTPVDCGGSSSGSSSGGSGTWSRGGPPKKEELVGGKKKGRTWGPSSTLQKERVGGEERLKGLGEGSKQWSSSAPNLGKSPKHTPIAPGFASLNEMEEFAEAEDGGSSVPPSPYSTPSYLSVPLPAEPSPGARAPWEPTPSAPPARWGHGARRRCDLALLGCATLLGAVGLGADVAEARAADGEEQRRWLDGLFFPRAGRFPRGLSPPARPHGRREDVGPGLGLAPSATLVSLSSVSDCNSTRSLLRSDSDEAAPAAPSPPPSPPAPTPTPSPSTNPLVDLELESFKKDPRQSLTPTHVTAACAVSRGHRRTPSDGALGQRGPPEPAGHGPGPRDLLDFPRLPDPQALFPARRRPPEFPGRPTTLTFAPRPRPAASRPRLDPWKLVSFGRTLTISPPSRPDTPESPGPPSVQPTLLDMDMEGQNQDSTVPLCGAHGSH
# Chain of Ribosomal protein S6 kinase alpha-5 (Homo sapiens) (O75582 whole entry, looked up, the tested form may be a part): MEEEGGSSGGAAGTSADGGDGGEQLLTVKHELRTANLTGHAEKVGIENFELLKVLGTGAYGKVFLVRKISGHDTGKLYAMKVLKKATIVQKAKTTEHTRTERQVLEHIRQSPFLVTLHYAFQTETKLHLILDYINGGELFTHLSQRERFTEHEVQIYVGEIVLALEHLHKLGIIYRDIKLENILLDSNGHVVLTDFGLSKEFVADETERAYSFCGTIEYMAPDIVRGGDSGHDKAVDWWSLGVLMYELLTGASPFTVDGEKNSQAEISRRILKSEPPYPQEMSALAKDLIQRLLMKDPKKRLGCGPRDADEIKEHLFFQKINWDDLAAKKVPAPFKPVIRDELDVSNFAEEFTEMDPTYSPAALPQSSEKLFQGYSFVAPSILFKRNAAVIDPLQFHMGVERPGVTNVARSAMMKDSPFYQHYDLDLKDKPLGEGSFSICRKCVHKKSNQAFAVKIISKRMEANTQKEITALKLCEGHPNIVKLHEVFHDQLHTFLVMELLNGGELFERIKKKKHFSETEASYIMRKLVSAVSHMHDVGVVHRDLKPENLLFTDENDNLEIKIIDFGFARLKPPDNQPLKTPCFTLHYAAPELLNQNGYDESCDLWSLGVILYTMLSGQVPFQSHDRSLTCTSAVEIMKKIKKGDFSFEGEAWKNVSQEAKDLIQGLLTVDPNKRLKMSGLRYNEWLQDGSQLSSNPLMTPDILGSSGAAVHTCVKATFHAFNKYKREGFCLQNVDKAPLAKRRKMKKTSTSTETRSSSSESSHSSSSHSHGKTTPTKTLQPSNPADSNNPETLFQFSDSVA
# Chain of Dual specificity protein kinase TTK (Homo sapiens) (P33981 whole entry, the tested form may be a part): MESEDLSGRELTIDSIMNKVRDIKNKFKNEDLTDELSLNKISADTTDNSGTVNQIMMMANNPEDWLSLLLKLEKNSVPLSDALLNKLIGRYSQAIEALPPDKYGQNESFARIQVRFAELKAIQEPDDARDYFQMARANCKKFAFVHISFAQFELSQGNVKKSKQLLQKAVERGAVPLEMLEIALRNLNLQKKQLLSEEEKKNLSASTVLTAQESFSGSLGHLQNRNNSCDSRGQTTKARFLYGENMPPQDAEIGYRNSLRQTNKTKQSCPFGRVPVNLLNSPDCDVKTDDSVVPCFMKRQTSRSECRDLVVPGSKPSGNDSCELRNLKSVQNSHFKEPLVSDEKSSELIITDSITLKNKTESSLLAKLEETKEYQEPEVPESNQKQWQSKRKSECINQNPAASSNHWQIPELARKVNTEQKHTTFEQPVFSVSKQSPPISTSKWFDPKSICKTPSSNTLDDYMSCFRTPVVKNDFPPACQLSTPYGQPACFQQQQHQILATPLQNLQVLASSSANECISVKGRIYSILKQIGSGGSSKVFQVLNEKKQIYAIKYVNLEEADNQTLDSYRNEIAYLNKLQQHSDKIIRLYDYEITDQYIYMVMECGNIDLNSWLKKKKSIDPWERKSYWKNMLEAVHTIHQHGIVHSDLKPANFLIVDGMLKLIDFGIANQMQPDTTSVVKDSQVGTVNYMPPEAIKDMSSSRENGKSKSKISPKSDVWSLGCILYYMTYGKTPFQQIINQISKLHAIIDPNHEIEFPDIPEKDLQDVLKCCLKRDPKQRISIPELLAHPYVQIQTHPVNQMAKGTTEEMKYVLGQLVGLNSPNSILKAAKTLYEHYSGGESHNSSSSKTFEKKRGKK
# Chain of Glycogen synthase kinase-3 beta (Homo sapiens) (P49841 whole entry, looked up, the tested form may be a part): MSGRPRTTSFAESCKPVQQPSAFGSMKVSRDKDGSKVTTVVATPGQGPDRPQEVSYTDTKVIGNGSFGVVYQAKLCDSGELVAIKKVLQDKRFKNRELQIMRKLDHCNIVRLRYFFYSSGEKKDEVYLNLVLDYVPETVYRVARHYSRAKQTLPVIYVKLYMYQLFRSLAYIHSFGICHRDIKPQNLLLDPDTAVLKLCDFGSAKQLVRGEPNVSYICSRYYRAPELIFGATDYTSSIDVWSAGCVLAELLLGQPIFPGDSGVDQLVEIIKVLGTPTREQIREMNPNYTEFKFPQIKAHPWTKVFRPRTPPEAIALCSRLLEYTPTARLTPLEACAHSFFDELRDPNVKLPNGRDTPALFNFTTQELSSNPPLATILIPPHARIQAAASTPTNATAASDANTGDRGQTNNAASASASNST
# Chain of Serine/threonine-protein kinase DCLK2 (Homo sapiens) (Q8N568 whole entry, the tested form may be a part): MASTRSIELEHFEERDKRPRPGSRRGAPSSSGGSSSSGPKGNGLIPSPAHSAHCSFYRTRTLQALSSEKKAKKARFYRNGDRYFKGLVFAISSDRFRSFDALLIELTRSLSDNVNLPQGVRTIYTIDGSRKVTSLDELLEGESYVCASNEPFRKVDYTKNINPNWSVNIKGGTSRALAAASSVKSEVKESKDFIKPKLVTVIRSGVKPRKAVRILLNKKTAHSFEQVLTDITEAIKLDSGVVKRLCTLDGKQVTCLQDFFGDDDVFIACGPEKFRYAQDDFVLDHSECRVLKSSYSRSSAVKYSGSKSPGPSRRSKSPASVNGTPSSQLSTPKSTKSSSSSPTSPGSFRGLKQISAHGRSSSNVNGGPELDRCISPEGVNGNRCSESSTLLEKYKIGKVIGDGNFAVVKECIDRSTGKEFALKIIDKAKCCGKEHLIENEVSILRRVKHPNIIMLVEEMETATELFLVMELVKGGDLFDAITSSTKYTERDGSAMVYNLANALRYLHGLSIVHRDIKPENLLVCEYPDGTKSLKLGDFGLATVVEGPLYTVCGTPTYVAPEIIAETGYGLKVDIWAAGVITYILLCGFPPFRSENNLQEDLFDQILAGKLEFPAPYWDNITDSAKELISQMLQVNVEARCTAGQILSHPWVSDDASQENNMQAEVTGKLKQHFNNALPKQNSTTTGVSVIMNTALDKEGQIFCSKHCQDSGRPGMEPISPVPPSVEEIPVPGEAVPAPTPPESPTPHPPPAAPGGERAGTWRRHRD
compound,measurement,setting,value
C=CC(=O)Nc1cc(Nc2cc(-c3cccc(NC(=O)c4ccc(C(C)(C)C)cc4)c3C)cn(C)c2=O)ccc1C(=O)N1CCOCC1,Activity,[1],99%
same,Activity,[2],92%
same,Activity,[3],80%
same,Activity,[4],90%
same,Activity,[5],98%
same,Activity,[6],100%
same,Activity,[7],100%
same,Activity,[8],Non-Toxic
same,Activity,[9],100%
same,Activity,[10],95%
same,Activity,[11],85%
same,Activity,[12],98%
same,Activity,[13],91%
same,Activity,[14],70%
same,Activity,[15],100%
same,Activity,[16],56%
same,Activity,[17],88%
same,Activity,[18],87%
same,Activity,[19],100%
same,Activity,[20],100%
same,Activity,[21],100%
same,Activity,[22],100%
same,Activity,[23],90%
same,Activity,[24],89%
same,Activity,[25],98%
